Reference: patent publication US10758534B2 (Vertex Pharmaceuticals Incorporated, priority 2014, dated 2020)

Target: T1, F508del (Homo sapiens, UniProt P13569, DEL508-508)
T1 construct: expressed in transfected cells
Assay: Protocol 2: FRET membrane potential optical assay (VIPR), identification of correction compounds
Assay type: cell-based
Conditions: Table 3; compounds of Table 1 as modulators of CFTR activity; protocol not stated
Outline: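 Single-addition HTS format: F508del-expressing NIH3T3 cells pre-incubated 16 hrs at 37° C. ± compound, with 27° C. culture as positive control. Channel activation by forskolin 10 μM and genistein 20 μM upon switch to gluconate bath, pH 7.4; read-out is FRET-based depolarization signal.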

T1 sequence (P13569 with tags, fused parts or gaps DEL508-508): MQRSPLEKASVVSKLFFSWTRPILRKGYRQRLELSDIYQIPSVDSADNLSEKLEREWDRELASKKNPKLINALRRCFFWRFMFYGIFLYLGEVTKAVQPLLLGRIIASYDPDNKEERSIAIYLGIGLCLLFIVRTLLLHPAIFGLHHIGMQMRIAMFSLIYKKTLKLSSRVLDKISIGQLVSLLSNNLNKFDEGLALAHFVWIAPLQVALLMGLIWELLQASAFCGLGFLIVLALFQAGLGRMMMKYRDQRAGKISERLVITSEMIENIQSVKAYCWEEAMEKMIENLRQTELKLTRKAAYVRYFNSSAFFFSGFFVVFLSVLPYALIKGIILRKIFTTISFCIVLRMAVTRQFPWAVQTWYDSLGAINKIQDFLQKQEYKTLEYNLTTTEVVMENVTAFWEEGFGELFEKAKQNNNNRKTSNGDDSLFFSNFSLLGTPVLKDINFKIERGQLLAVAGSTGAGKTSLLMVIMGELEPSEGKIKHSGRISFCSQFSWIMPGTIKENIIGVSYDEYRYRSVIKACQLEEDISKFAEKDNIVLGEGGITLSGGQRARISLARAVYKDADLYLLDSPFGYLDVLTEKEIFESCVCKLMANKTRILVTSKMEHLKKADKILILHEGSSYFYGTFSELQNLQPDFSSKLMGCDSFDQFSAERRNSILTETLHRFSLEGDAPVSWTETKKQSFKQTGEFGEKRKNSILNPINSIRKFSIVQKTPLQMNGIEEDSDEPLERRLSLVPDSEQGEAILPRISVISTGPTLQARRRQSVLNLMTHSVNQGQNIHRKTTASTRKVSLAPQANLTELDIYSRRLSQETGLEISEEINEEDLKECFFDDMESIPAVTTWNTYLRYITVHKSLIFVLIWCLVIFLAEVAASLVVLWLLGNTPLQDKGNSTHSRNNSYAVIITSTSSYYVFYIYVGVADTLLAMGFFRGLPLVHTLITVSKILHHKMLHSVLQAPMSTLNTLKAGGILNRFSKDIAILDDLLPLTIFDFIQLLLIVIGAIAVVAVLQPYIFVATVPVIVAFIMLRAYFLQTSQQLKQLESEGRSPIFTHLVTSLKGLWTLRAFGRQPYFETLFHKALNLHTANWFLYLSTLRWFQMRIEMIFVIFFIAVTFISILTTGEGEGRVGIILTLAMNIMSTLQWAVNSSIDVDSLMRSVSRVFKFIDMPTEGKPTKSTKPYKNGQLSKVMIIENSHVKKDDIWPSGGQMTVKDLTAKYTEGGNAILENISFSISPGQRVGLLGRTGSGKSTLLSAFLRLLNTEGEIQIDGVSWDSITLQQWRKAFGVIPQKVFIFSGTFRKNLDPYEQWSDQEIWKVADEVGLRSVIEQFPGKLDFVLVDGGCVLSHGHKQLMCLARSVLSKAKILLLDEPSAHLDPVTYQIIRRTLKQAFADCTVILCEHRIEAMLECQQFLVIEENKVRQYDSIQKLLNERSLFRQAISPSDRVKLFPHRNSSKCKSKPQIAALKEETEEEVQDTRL

SMILES	EC30
CC(C)COc1cc(F)cc(-c2ccc(C(=O)NS(=O)(=O)c3cccc(N)n3)c(N3CC(C)CC(C)(C)C3)n2)c1 (stereo not shown) [Compound 560, N-[(6-amino-2-pyridyl)sulfonyl]-6-(3-fluoro-5-isobutoxy-phenyl)-2-(3,3,5-trimethyl-1-piperidyl)pyridine-3-carboxamide]	+++ (“+++” means <3 uM)
Cc1cc(C)c(Oc2nc(-c3ccc(F)cc3)ccc2C(=O)NS(=O)(=O)c2ccc[nH]c2=O)c(C)c1 [Compound 561, 6-(4-fluorophenyl)-N-[(2-oxo-1H-pyridin-3-yl)sulfonyl]-2-(2,4,6-trimethylphenoxy)pyridine-3-carboxamide]	+++ (“+++” means <3 uM)
CC(C)COc1cc(F)cc(-c2ccc(C(=O)NS(=O)(=O)c3cccc(N)n3)c(OC(C)c3cccc(F)c3)n2)c1 (stereo not shown) [Compound 562, N-[(6-amino-2-pyridyl)sulfonyl]-6-(3-fluoro-5-isobutoxy-phenyl)-2-[1-(3-fluorophenyl)ethoxy]pyridine-3-carboxamide]	+++ (“+++” means <3 uM)
CC(C)COc1ccc(-c2ccc(C(=O)NS(=O)(=O)c3cccc(N)n3)c(N3[C@H](C)CC[C@@H]3C)n2)cc1 [Compound 563, N-[(6-amino-2-pyridyl)sulfonyl]-2-[(2S,5R)-2,5-dimethylpyrrolidin-1-yl]-6-(4-isobutoxyphenyl)pyridine-3-carboxamide]	+++ (“+++” means <3 uM)
Cc1cc(C)c(Oc2nc(-n3cccn3)ccc2C(=O)NS(=O)(=O)c2cccc(N)n2)c(C)c1 [Compound 564, N-[(6-amino-2-pyridyl)sulfonyl]-6-pyrazol-1-yl-2-(2,4,6-trimethylphenoxy)pyridine-3-carboxamide]	++ (“++” means between 3 uM and 10 uM)
CC(C)COc1cc(F)cc(-c2ccc(C(=O)NS(=O)(=O)c3ccn[nH]3)c(N3CCC(F)(F)C3)n2)c1 [Compound 565, 2-(3,3-difluoropyrrolidin-1-yl)-6-(3-fluoro-5-isobutoxy-phenyl)-N-(1H-pyrazol-5-ylsulfonyl)pyridine-3-carboxamide]	+ (“+” means greater than 10 uM)
Cc1cc(C)c(Cn2nc(C(C)C)cc2C(=O)NS(=O)(=O)c2cccc(N)c2)c(C)c1 [Compound 566, N-(3-aminophenyl)sulfonyl-5-isopropyl-2-[(2,4,6-trimethylphenyl)methyl]pyrazole-3-carboxamide]	+ (“+” means greater than 10 uM)
CC(C)Oc1ccc(-c2ccc(C(=O)NS(=O)(=O)c3cccc(N)n3)c(N3CCCCC3)n2)cn1 [Compound 567, N-[(6-amino-2-pyridyl)sulfonyl]-6-(6-isopropoxy-3-pyridyl)-2-(1-piperidyl)pyridine-3-carboxamide]	++ (“++” means between 3 uM and 10 uM)
CN=S(=O)(NC(=O)c1ccc(C(C)(C)C)nc1Oc1c(C)cc(C)cc1C)c1cccc(N)c1 (stereo not drawn) [Compound 568, N—[S-(3-aminophenyl)-N-methyl-sulfonimidoyl]-6-tert-butyl-2-(2,4,6-trimethylphenoxy)pyridine-3-carboxamide]	+++ (“+++” means <3 uM)
CC(C)CNc1ccc(-c2ccc(C(=O)NS(=O)(=O)c3cccc(N)n3)c(N3CC(C)CC3(C)C)n2)cn1 (stereo not shown) [Compound 569, N-[(6-amino-2-pyridyl)sulfonyl]-6-[16-(isobutylamino)-3-pyridyl]-2-(2,2,4-trimethylpyrrolidin-1-yl)pyridine-3-carboxamide]	+++ (“+++” means <3 uM)
Cc1cc(C)c(Oc2nc(-c3cccc(F)c3)ccc2C(=O)NS(=O)(=O)c2cccc(N)n2)c(C)c1 [Compound 570, N-[(6-amino-2-pyridyl)sulfonyl]-6-(3-fluorophenyl)-2-(2,4,6-trimethylphenoxy)pyridine-3-carboxamide]	+++ (“+++” means <3 uM)
CC(C)(C)c1ccc(C(=O)NS(=O)(=O)c2cccc(N)n2)c(N2CCCCC2)n1 [Compound 571, N-[(6-amino-2-pyridyl)sulfonyl]-6-tert-butyl-2-(1-piperidyl)pyridine-3-carboxamide]	++ (“++” means between 3 uM and 10 uM)
C[C@@H]1CC[C@H](C)N1c1nc(-c2cc(F)cc(OCC(C)(C)C)c2)ccc1C(=O)NS(=O)(=O)c1ccc[nH]c1=O [Compound 572, 6-[3-(2,2-dimethylpropoxy)-5-fluoro-phenyl]-2-[(2S,5R)-2,5-dimethylpyrrolidin-1-yl]-N-[(2-oxo-1H-pyridin-3-yl)sulfonyl]pyridine-3-carboxamide]	+++ (“+++” means <3 uM)
Cc1cc(C)c(Oc2nc(C3=CCC(C)(C)CC3)ccc2C(=O)NS(=O)(=O)c2ccc[nH]c2=O)c(C)c1 [Compound 573, 6-(4,4-dimethylcyclohexen-1-yl)-N-[(2-oxo-1H-pyridin-3-yl)sulfonyl]-2-(2,4,6-trimethylphenoxy)pyridine-3-carboxamide]	+++ (“+++” means <3 uM)
COCC1CCCCN1c1nc(-c2ccc(OC(C)C)nc2)ccc1C(=O)NS(=O)(=O)c1cccc(N)n1 (stereo not shown) [Compound 574, N-[(6-amino-2-pyridyl)sulfonyl]-6-(6-isopropoxy-3-pyridyl)-2-[2-(methoxymethyl)-1-piperidyl]pyridine-3-carboxamide]	++ (“++” means between 3 uM and 10 uM)
CC(C)COc1cc(F)cc(-c2ccc(C(=O)NS(=O)(=O)c3cccc(N)n3)c(N3CCC(C)C(C)(C)C3)n2)c1 (stereo not shown) [Compound 575, N-[(6-amino-2-pyridyl)sulfonyl]-6-(3-fluoro-5-isobutoxy-phenyl)-2-(3,3,4-trimethyl-1-piperidyl)pyridine-3-carboxamide]	+++ (“+++” means <3 uM)
C[C@H](COCc1ccccc1)Oc1ccc(-c2ccc(C(=O)NS(=O)(=O)c3cccc(N)n3)c(N3[C@H](C)CC[C@@H]3C)n2)cn1 [Compound 576, N-[(6-amino-2-pyridyl)sulfonyl]-6-[6-[(1R)-2-benzyloxy-1-methyl-ethoxy]-3-pyridyl]-2-[(2S,5R)-2,5-dimethylpyrrolidin-1-yl]pyridine-3-carboxamide]	+++ (“+++” means <3 uM)
Cc1cc(C)c(Oc2nc(-c3cnn(CC(C)C)c3)ccc2C(=O)NS(=O)(=O)c2cc[nH]n2)c(C)c1 [Compound 577, 6-(1-isobutylpyrazol-4-yl)-N-(1H-pyrazol-3-ylsulfonyl)-2-(2,4,6-trimethylphenoxy)pyridine-3-carboxamide]	++ (“++” means between 3 uM and 10 uM)
CC(C)Oc1ccc(-c2ccc(C(=O)NS(=O)(=O)c3cccc(N)n3)c(N3CCC4(CC3)CC4)n2)cn1 [Compound 578, N-[(6-amino-2-pyridyl)sulfonyl]-2-(6-azaspiro[2.5]octan-6-yl)-6-(6-isopropoxy-3-pyridyl)pyridine-3-carboxamide]	+++ (“+++” means <3 uM)
Cc1cc(C)c(Oc2nc(-c3ccc(Cl)cc3)ccc2C(=O)NS(=O)(=O)c2ccc[nH]c2=O)c(C)c1 [Compound 579, 6-(4-chlorophenyl)-N-[(2-oxo-1H-pyridin-3-yl)sulfonyl]-2-(2,4,6-trimethylphenoxy)pyridine-3-carboxamide]	+++ (“+++” means <3 uM)
CCC(CC)Oc1cccc(-c2ccc(C(=O)NS(=O)(=O)c3cccc(N)n3)c(N3CC(C)CC3(C)C)n2)n1 (stereo not shown) [Compound 580, N-[(6-amino-2-pyridyl)sulfonyl]-6-[6-(1-ethylpropoxy)-2-pyridyl]-2-(2,2,4-trimethylpyrrolidin-1-yl)pyridine-3-carboxamide]	+++ (“+++” means <3 uM)
CC(C)COc1cc(F)cc(-c2ccc(C(=O)NS(=O)(=O)c3cccc(N)n3)c(N3C[C@@H]4CC[C@@H](C4)C3)n2)c1 [Compound 581, N-[(6-amino-2-pyridyl)sulfonyl]-2-[(1R,5S)-3-azabicyclo[3.2.1]octan-3-yl]-6-(3-fluoro-5-isobutoxy-phenyl)pyridine-3-carboxamide]	+++ (“+++” means <3 uM)
Cc1cc(C)c(Oc2nc(-c3c[nH]nc3C(F)(F)F)ccc2C(=O)NS(=O)(=O)c2cccc(N)n2)c(C)c1 [Compound 582, N-[(6-amino-2-pyridyl)sulfonyl]-6-[3-(trifluoromethyl)-1H-pyrazol-4-yl]-2-(2,4,6-trimethylphenoxy)pyridine-3-carboxamide]	++ (“++” means between 3 uM and 10 uM)
CC(C)COc1cc(F)cc(-c2ccc(C(=O)NS(=O)(=O)c3ccccc3)c(N3CCC(C)(C)CC3)n2)c1 [Compound 583, N-(benzenesulfonyl)-2-(4,4-dimethyl-1-piperidyl)-6-(3-fluoro-5-isobutoxy-phenyl)pyridine-3-carboxamide]	+++ (“+++” means <3 uM)
Cc1cc(C)c(Oc2nc(-c3cnn(C)c3C)ccc2C(=O)NS(=O)(=O)c2cccc(N)n2)c(C)c1 [Compound 584, N-[(6-amino-2-pyridyl)sulfonyl]-6-(1,5-dimethylpyrazol-4-yl)-2-(2,4,6-trimethylphenoxy)pyridine-3-carboxamide]	++ (“++” means between 3 uM and 10 uM)
CCOc1cc(F)cc(-c2ccc(C(=O)NS(=O)(=O)c3cc[nH]n3)c(Oc3c(C)cc(C)cc3C)n2)c1 [Compound 585, 6-(3-ethoxy-5-fluoro-phenyl)-N-(1H-pyrazol-3-ylsulfonyl)-2-(2,4,6-trimethylphenoxy)pyridine-3-carboxamide]	+++ (“+++” means <3 uM)
Cc1cc(C)c(Oc2nc(-c3cc(F)cc(OCC(C)C)c3)ccc2C(=O)NS(=O)(=O)c2cncc(N)n2)c(C)c1 [Compound 586, N-(6-aminopyrazin-2-yl)sulfonyl-6-(3-fluoro-5-isobutoxy-phenyl)-2-(2,4,6-trimethylphenoxy)pyridine-3-carboxamide]	+++ (“+++” means <3 uM)
CC(C)COc1cc(F)cc(-c2ccc(C(=O)NS(=O)(=O)c3cccc(N)n3)c(N3CC(C)CC3C)n2)c1 (stereo not shown) [Compound 587, N-[(6-amino-2-pyridyl)sulfonyl]-2-(2,4-dimethylpyrrolidin-1-yl)-6-(3-fluoro-5-isobutoxy-phenyl)pyridine-3-carboxamide]	+++ (“+++” means <3 uM)
